# Results taken from patent US20230108906A1, “SUBSTITUTED BICYCLIC AND TRICYCLIC UREAS AND AMIDES, ANALOGUES THEREOF, AND METHODS USING SAME” (Arbutus Biopharma Corporation, priority 2019, published 2023).
# System: HBV rcDNA in HepDE19 cells
# Experiment: HepDE19 assay with bDNA quantitation of HBV rcDNA
# Type: cell-based, hepatitis B virus (HBV)
# Details: Hepatitis B virus, HepDE19, 168 h, inhibition of rcDNA formation in HepDE19 cells (HepG2 derived), Tet-free medium, 7 day incubation, Quantigene 2.0 bDNA readout, top concentration 25 μM; read-out: DE-19bDNA EC50
# Method in brief: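 HepDE19 cells (HepG2-derived, Tet-regulated HBV) switched to Tet-free medium, then treated 7 days at 37 °C with compound, 8-point titration from 25 μM, 0.5% DMSO. rcDNA quantified by bDNA with HBV probes; EC50/EC90 via 4-parameter fit. Viability (CC50) by CellTiter-Glo ATP on 5,000 cells/well after 4 days.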
row,Compound,EC50
1,"CN(C(=O)Nc1ccc(F)c(Cl)c1)C1CCCc2[nH]c(=O)c3cc(F)ccc3c21 (stereo not drawn) [Compound 9, 3-(3-Chloro-4-fluorophenyl)-1-(8-fluoro-6-oxo-1,2,3,4,5,6-hexahydrophenanthridin-1-yl)-1-methylurea]",30 nM
2,"CC(C)CN(C(=O)Nc1ccc(F)c(Cl)c1)C1CCCc2[nH]c(=O)c3cc(F)ccc3c21 (stereo not drawn) [Compound 10, 3-(3-Chloro-4-fluorophenyl)-1-(8-fluoro-6-oxo-1,2,3,4,5,6-hexahydrophenanthridin-1-yl)-1-isobutylurea]",60 nM
3,"O=C(Nc1ccc(F)c(Cl)c1)N(CCCO)C1CCCc2[nH]c(=O)c3cc(F)ccc3c21 (stereo not drawn) [Compound 11, 3-(3-Chloro-4-fluorophenyl)-1-(8-fluoro-6-oxo-1,2,3,4,5,6-hexahydrophenanthridin-1-yl)-1-(3-hydroxypropyl)urea]",60 nM
4,"CN(C(=O)Nc1ccc(F)c(Cl)c1)C1CCc2[nH]c(=O)c3ccccc3c21 (stereo not drawn) [Compound 12, 3-(3-Chloro-4-fluorophenyl)-1-methyl-1-(5-oxo-2,3,4,5-tetrahydro-1H-cyclopenta[c]isoquinolin-1-yl)urea]",90 nM
5,"CC(C)CN(C(=O)Nc1ccc(F)c(Cl)c1)C1CCc2[nH]c(=O)c3ccccc3c21 (stereo not drawn) [Compound 13, 3-(3-Chloro-4-fluorophenyl)-1-isobutyl-1-(5-oxo-2,3,4,5-tetrahydro-1H-cyclopenta[c]isoquinolin-1-yl)urea]",1300 nM
6,"O=C(Nc1ccc(F)c(Cl)c1)N(CCCO)C1CCc2[nH]c(=O)c3ccccc3c21 (stereo not drawn) [Compound 14, 3-(3-Chloro-4-fluorophenyl)-1-(3-hydroxypropyl)-1-(5-oxo-2,3,4,5-tetrahydro-1H-cyclopenta[c]isoquinolin-1-yl)urea]",100 nM
7,"CN(C(=O)Nc1ccc(F)cc1)C1CCCc2[nH]c(=O)c3cc(F)c(F)cc3c21 (stereo not drawn) [Compound 19, 1-(8,9-Difluoro-6-oxo-1,2,3,4,5,6-hexahydrophenanthridin-1-yl)-3-(4-fluorophenyl)-1-methylurea]",160 nM
8,"CN(C(=O)Nc1ccc(F)c(Cl)c1)C1CCCc2[nH]c(=O)c3cc(F)cc(F)c3c21 (stereo not drawn) [Compound 20, 3-(3-Chloro-4-fluorophenyl)-1-(8,10-difluoro-6-oxo-1,2,3,4,5,6-hexahydrophenanthridin-1-yl)-1-methylurea]",510 nM
9,"CN(C(=O)Nc1ccc(F)c(Cl)c1)C1CCCCc2[nH]c(=O)c3ccccc3c21 (stereo not drawn) [Compound 21, 3-(3-Chloro-4-fluorophenyl)-1-methyl-1-(5-oxo-6,7,8,9,10,11-hexahydro-5H-cyclohepta[c]isoquinolin-11-yl)urea]",150 nM
10,"O=C(Nc1ccc(F)c(Cl)c1)N(CCCO)C1CCCCc2[nH]c(=O)c3ccccc3c21 (stereo not drawn) [Compound 22, 3-(3-Chloro-4-fluorophenyl)-1-(3-hydroxypropyl)-1-(5-oxo-6,7,8,9,10,11-hexahydro-5H-cyclohepta[c]isoquinolin-11-yl)urea]",600 nM
11,"CN(C(=O)Nc1ccc(F)c(Cl)c1)C1COCc2[nH]c(=O)c3cc(F)cc(F)c3c21 (stereo not drawn) [Compound 25, 3-(3-Chloro-4-fluorophenyl)-1-(8,10-difluoro-6-oxo-1,4,5,6-tetrahydro-2H-pyrano[3,4-c]isoquinolin-1-yl)-1-methylurea]",290 nM
12,"CN(C(=O)Nc1ccc(F)c(Cl)c1)C1CC(C)(C)Cc2[nH]c(=O)c3ccccc3c21 (stereo not drawn) [Compound 27, 3-(3-Chloro-4-fluorophenyl)-1-(3,3-dimethyl-6-oxo-1,2,3,4,5,6-hexahydrophenanthridin-1-yl)-1-methylurea]",12000 nM
13,"CN(C(=O)Nc1ccc(F)c(Cl)c1)C1CCCc2[nH]c(=O)c3c(F)c(F)ccc3c21 (stereo not drawn) [Compound 28, 3-(3-Chloro-4-fluorophenyl)-1-(7,8-difluoro-6-oxo-1,2,3,4,5,6-hexahydrophenanthridin-1-yl)-1-methylurea]",440 nM
14,"CN(C(=O)Nc1cc(F)cc(Cl)c1)C1COCc2[nH]c(=O)c3ccccc3c21 (stereo not drawn) [Compound 29, 3-(3-Chloro-5-fluorophenyl)-1-methyl-1-(6-oxo-1,4,5,6-tetrahydro-2H-pyrano[3,4-c]isoquinolin-1-yl)urea]",120 nM
15,"CC(C)CN(C(=O)Nc1ccc(F)c(Cl)c1)C1COCc2[nH]c(=O)c3ccccc3c21 (stereo not drawn) [Compound 30, 3-(3-Chloro-4-fluorophenyl)-1-isobutyl-1-(6-oxo-1,4,5,6-tetrahydro-2H-pyrano[3,4-c]isoquinolin-1-yl)urea]",20 nM
16,"CN(C(=O)Nc1ccc(F)c(Cl)c1)C1CCCc2c1c1ccccc1c(=O)n2C (stereo not drawn) [Compound 31, 3-(3-Chloro-4-fluorophenyl)-1-methyl-1-(5-methyl-6-oxo-1,2,3,4,5,6-hexahydrophenanthridin-1-yl)urea]",260 nM

row,Compound,EC50
1,"CN(C(=O)Nc1ccc(F)c(F)c1)C1CCCc2[nH]c(=O)c3cc(F)ccc3c21 (stereo not drawn) [Compound 32, 3-(3,4-Difluorophenyl)-1-(8-fluoro-6-oxo-1,2,3,4,5,6-hexahydrophenanthridin-1-yl)-1-methylurea]",110 nM
2,"CN(C(=O)Nc1cc(F)c(F)c(F)c1)C1CCCc2[nH]c(=O)c3cc(F)ccc3c21 (stereo not drawn) [Compound 33, 1-(8-Fluoro-6-oxo-1,2,3,4,5,6-hexahydrophenanthridin-1-yl)-1-methyl-3-(3,4,5-trifluorophenyl)urea]",100 nM
3,"COc1nc2c(c3ccccc13)C(N(C)C(=O)Nc1ccc(F)c(Cl)c1)CCC2 (stereo not drawn) [Compound 34, 3-(3-Chloro-4-fluorophenyl)-1-(6-methoxy-1,2,3,4-tetrahydrophenanthridin-1-yl)-1-methylurea]",1800 nM
4,"CN(C(=O)Nc1ccc(F)c(Cl)c1)C1COCc2[nH]c(=O)c3c(F)c(F)ccc3c21 (stereo not drawn) [Compound 35, 3-(3-Chloro-4-fluorophenyl)-1-(7,8-difluoro-6-oxo-1,4,5,6-tetrahydro-2H-pyrano[3,4-c]isoquinolin-1-yl)-1-methylurea]",190 nM
5,"CC(C)CN(C(=O)Nc1ccc(F)c(Cl)c1)C1COCc2[nH]c(=O)c3cc(F)ccc3c21 (stereo not drawn) [Compound 43, 3-(3-Chloro-4-fluorophenyl)-1-(8-fluoro-6-oxo-1,4,5,6-tetrahydro-2H-pyrano[3,4-c]isoquinolin-1-yl)-1-isobutylurea]",10 nM
6,"CCN(C(=O)Nc1ccc(F)c(Cl)c1)C1COCc2[nH]c(=O)c3cc(F)ccc3c21 (stereo not drawn) [Compound 44, 3-(3-Chloro-4-fluorophenyl)-1-ethyl-1-(8-fluoro-6-oxo-1,4,5,6-tetrahydro-2H-pyrano[3,4-c]isoquinolin-1-yl)urea]",10 nM
7,"CN(C(=O)Nc1ccc(F)c(Cl)c1)C1COCc2[nH]c(=O)c3cc(Cl)ccc3c21 (stereo not drawn) [Compound 55, 3-(3-Chloro-4-fluorophenyl)-1-(8-chloro-6-oxo-1,4,5,6-tetrahydro-2H-pyrano[3,4-c]isoquinolin-1-yl)-1-methylurea]",50 nM
8,"CCN(C(=O)Nc1ccc(F)c(Cl)c1)C1COCc2[nH]c(=O)c3cc(Cl)ccc3c21 (stereo not drawn) [Compound 56, 3-(3-Chloro-4-fluorophenyl)-1-(8-chloro-6-oxo-1,4,5,6-tetrahydro-2H-pyrano[3,4-c]isoquinolin-1-yl)-1-ethylurea]",50 nM
9,"Cc1cc(NC(=O)N(C)C2COCc3[nH]c(=O)c4cc(F)ccc4c32)ccc1F (stereo not drawn) [Compound 57, 3-(4-Fluoro-3-methylphenyl)-1-(8-fluoro-6-oxo-1,4,5,6-tetrahydro-2H-pyrano[3,4-c]isoquinolin-1-yl)-1-methylurea]",10 nM
10,"Cc1cc(NC(=O)N(C)C2COCc3[nH]c(=O)c4cc(Cl)ccc4c32)ccc1F (stereo not drawn) [Compound 58, 1-(8-Chloro-6-oxo-1,4,5,6-tetrahydro-2H-pyrano[3,4-c]isoquinolin-1-yl)-3-(4-fluoro-3-methylphenyl)-1-methylurea]",40 nM
11,"CCN(C(=O)Nc1ccc(F)c(C)c1)C1COCc2[nH]c(=O)c3cc(Cl)ccc3c21 (stereo not drawn) [Compound 59, 1-(8-Chloro-6-oxo-1,4,5,6-tetrahydro-2H-pyrano[3,4-c]isoquinolin-1-yl)-1-ethyl-3-(4-fluoro-3-methylphenyl)urea]",20 nM
12,"CN(C(=O)Nc1ccc(F)c(C#N)c1)C1COCc2[nH]c(=O)c3cc(Cl)ccc3c21 (stereo not drawn) [Compound 65, 1-(8-Chloro-6-oxo-1,4,5,6-tetrahydro-2H-pyrano[3,4-c]isoquinolin-1-yl)-3-(3-cyano-4-fluorophenyl)-1-methylurea]",80 nM
13,"CCN(C(=O)Nc1ccc(F)c(C#N)c1)C1COCc2[nH]c(=O)c3cc(Cl)ccc3c21 (stereo not drawn) [Compound 66, 1-(8-Chloro-6-oxo-1,4,5,6-tetrahydro-2H-pyrano[3,4-c]isoquinolin-1-yl)-3-(3-cyano-4-fluorophenyl)-1-ethylurea]",50 nM
14,"CN(C(=O)Nc1ccc(F)c(Cl)c1)C1COCc2[nH]c(=O)c3ccc(F)cc3c21 (stereo not drawn) [Compound 73, 3-(3-Chloro-4-fluorophenyl)-1-(9-fluoro-6-oxo-1,4,5,6-tetrahydro-2H-pyrano[3,4-c]isoquinolin-1-yl)-1-methylurea]",20 nM
15,"CCN(C(=O)Nc1ccc(F)c(Cl)c1)C1COCc2[nH]c(=O)c3ccc(F)cc3c21 (stereo not drawn) [Compound 74, 3-(3-Chloro-4-fluorophenyl)-1-ethyl-1-(9-fluoro-6-oxo-1,4,5,6-tetrahydro-2H-pyrano[3,4-c]isoquinolin-1-yl)urea]",20 nM

# Same assay, conditions: inhibition of rcDNA formation in HepDE19 cells (HepG2 derived), Tet-free medium, 7 day incubation, Quantigene 2.0 bDNA readout, top concentration 25 μM; read-out: DE-19bDNA EC50
row,Compound,EC50
1,"CN(C(=O)Nc1ccc(F)c(Cl)c1)C1CCCc2[nH]c(=O)c3cc(F)c(F)cc3c21 (stereo not drawn) [Compound 38, 3-(3-Chloro-4-fluorophenyl)-1-(8,9-difluoro-6-oxo-1,2,3,4,5,6-hexahydrophenanthridin-1-yl)-1-methylurea]",1000 nM
2,"CN(C(=O)Nc1ccc(F)c(Cl)c1)C1CCCc2[nH]c(=O)c3cc(F)c(F)cc3c21 (stereo not drawn) [Compound 39, 3-(3-Chloro-4-fluorophenyl)-1-(8,9-difluoro-6-oxo-1,2,3,4,5,6-hexahydrophenanthridin-1-yl)-1-methylurea]",10 nM
